# Experimental data as given in patent publication US20260116910A1, “POLYCYCLIC COMPOUNDS AND METHODS THEREOF” (HEPAITECH (BEIJING) BIOPHARMA TECHNOLOGY CO., LTD., priority 2021, published 2026).
# Legend:
# [1] = target: MRGPRX4 (Homo sapiens, UniProt Q96LA9); experiment: MRGPRX4 activation, Fluo-8 Ca2+ FLIPR assay in HEK293T cells stably expressing MRGPRX4; type: cell-based; settings: for EC50: MRGPRX4 activation, Ca2+ fluorescence, no activation in tested range reported as III, read-out: Activity (EC50 μM)
# Method: In some embodiments, cells were cultured in poly-D-Lys coated blacked walled, clear-bottom 96-well microplates. HEK293T cells stably expressing MRGPRX4 were cultured in DMEM medium supplemented with 10% FBS and 1% PS, at 37° C. in a humidified atmosphere with 5% CO2. Cells were detached by centrifuging (1000 rpm, 3 min). The pellet was re-suspended in medium, and cell density was adjusted to about 1×10^6 cells/mL. 100 μL suspension was seeded to each well of a microplates (cell plate). Cells in the microplates were cultured overnight. In the following day, cells were grown to higher than 95% density in each well.
# Ca^2+ fluorescent dye loading: Fluo-8 AM (Screen Quest Fluo-8 AM Calcium Assay Kit, AAT Bioquest, cat. #: 21083) was diluted in HHBS buffer and adjusted to 2 μM (dye buffer). Medium in each well was changed into 50 μL dye buffer carefully. After incubation for 40-60 min under room temperature, the dye buffer was changed into 50 μL HHBS buffer.
# The concentration of solution should be determined according to the protocol settings and experimental needs (e.g., Log[M]=−4, −5, −6, −7, −8, and −9). Prepare 2× serial dilution series of compounds (at least 75 μL per well).
# A fluorescent signal baseline was measured using FLIPR®Tetra for 30 s. Then 50 μL of the chemical solution would be added to the cell plate. The fluorescent signal would be measured for another 150 s.
# Activity of each compound was calculated by the fluorescence change (dF/F0). Curves were fitted to obtain EC50 values. In some embodiments, at least 3 repeats were performed to obtain the average values. For assessment of a compound, gradient diluted solutions of different concentrations were used to treat cells and corresponding responses were used to fit sigmoid function and to derive EC50 in Origin. In some embodiments, assessed concentrations were or included about 10^−4, 10^−4.5, 10^−5, 10^−5.5, 10^−6, 10^−6.5, 10^−7, 10^−8, and/or 10^−9 M; for example, in many instances, assessed concentrations included about 10^−5, 10^−6, 10^−7 and 10^−8 M. In some embodiments, assessed concentrations were about 10^−4, 10^−4.5, 10^−5, 10^−5.5, 10^−6, 10^−7, 10^−8, and 10^−9 M. In some embodiments, assessed concentrations were about 10^−4, 10^−5, 10^−6, 10^−7, 10^−8, and 10^−9 M. In some embodiments, assessed concentrations were about 10^−4, 10^−4.5, 10^−5, 10^−5.5, 10^−6, and 10^−7 M. In some embodiments, assessed concentrations were about 2000000, 1000000, 500000, 250000, 125000, 62500, 31250, 15625, 7813, 3906 nM. […] In some embodiments, assessed concentrations were about 30000, 10000, 3333, 1111, 370, 123, 41, 14, 4.6, 1.5 nM.
# [2] = target: T1, human FXR (NR1H4) (Homo sapiens, UniProt Q96RI1); experiment: Human FXR (NR1H4) agonist assessment, FXRE-NanoLuc reporter in HEK293T cells; type: cell-based; settings: FXR activation, HEK293T FXRE-NanoLuc reporter, 24 hr; for EC50: read-out: EC50
# T1 sequence (Q96RI1 1-476 isoform Q96RI1-1): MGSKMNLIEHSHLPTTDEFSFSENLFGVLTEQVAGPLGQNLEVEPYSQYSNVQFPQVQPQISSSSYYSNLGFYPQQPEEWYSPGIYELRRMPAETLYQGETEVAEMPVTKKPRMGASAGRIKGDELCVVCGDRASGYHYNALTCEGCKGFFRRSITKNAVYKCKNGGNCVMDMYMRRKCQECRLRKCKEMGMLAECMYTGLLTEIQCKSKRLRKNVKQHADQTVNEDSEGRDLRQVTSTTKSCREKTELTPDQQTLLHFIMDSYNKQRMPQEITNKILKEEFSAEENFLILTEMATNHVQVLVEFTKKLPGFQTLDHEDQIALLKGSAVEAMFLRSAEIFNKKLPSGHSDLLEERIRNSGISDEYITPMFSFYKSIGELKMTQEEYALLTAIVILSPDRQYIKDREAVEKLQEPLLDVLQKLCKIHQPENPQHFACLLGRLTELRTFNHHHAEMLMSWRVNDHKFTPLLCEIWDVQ
# Method in brief: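 HEK293T cells stably expressing human FXR with an FXRE-NanoLuc reporter were treated with compounds for 24 hr at 37 °C, with 0.01% DMSO as negative control. Medium was read for luminescence after 5 min with coelenterazine. EC50 was fitted by sigmoid to concentration-response data.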
# Chain of MRGPRX4 (Q96LA9 whole entry): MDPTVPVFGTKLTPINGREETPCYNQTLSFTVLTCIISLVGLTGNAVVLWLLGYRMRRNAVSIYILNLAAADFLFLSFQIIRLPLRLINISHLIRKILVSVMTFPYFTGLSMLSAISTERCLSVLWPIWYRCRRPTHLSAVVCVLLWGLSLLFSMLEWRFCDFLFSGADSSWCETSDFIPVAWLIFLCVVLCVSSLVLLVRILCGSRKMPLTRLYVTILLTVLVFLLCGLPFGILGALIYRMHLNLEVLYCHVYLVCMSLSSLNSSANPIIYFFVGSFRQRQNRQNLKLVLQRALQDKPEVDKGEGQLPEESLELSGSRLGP
smiles,measurement,setting,value
CC[C@H]1[C@@H](OC(=O)c2cccc(I)c2)[C@H]2[C@@H]3[C@@H](O)C=C([C@H](C)CCC(=O)OC)[C@@]3(C)CC[C@@H]2[C@@]2(C)CCCC[C@@H]12 [3-3],"MRGPRX4 activation, fluorescence change (dF/F0), Average",[1]; Conc. (Log[M]) −4,0.041
same,"MRGPRX4 activation, fluorescence change (dF/F0), Average",[1]; Conc. (Log[M]) −4.5,0.052
same,"MRGPRX4 activation, fluorescence change (dF/F0), Average",[1]; Conc. (Log[M]) −5,−0.045
same,"MRGPRX4 activation, fluorescence change (dF/F0), Average",[1]; Conc. (Log[M]) −5.5,−0.013
same,"MRGPRX4 activation, fluorescence change (dF/F0), Average",[1]; Conc. (Log[M]) −6,−0.015
same,"MRGPRX4 activation, fluorescence change (dF/F0), Average",[1]; Conc. (Log[M]) −7,−0.015
same,"MRGPRX4 activation, fluorescence change (dF/F0), Average",[1]; Conc. (Log[M]) −8,−0.031
same,"MRGPRX4 activation, fluorescence change (dF/F0), Average",[1]; Conc. (Log[M]) −9,−0.014
same,EC50,[1],> 100 µM
same,"Efficacy (maximum measured induction of NanoLuc, normalized to CDCA set as 100%)",[2],C (100%<efficacy <=300%)
same,EC50,[2],> 10000 nM
CC[C@H]1[C@@H](O)[C@@H]2[C@H](CC[C@]3(C)[C@@H]([C@H](C)CCC(=O)NS(=O)(=O)C(C)(C)C)CC[C@@H]23)[C@@]2(C)CCCC[C@@H]12 [4-1],"MRGPRX4 activation, fluorescence change (dF/F0), Average",[1]; Conc. (Log[M]) −4,0.057
same,"MRGPRX4 activation, fluorescence change (dF/F0), Average",[1]; Conc. (Log[M]) −4.5,0.035
same,"MRGPRX4 activation, fluorescence change (dF/F0), Average",[1]; Conc. (Log[M]) −5,−0.037
same,"MRGPRX4 activation, fluorescence change (dF/F0), Average",[1]; Conc. (Log[M]) −5.5,−0.013
same,"MRGPRX4 activation, fluorescence change (dF/F0), Average",[1]; Conc. (Log[M]) −6,0.002
same,"MRGPRX4 activation, fluorescence change (dF/F0), Average",[1]; Conc. (Log[M]) −7,0.009
same,"MRGPRX4 activation, fluorescence change (dF/F0), Average",[1]; Conc. (Log[M]) −8,0.004
same,"MRGPRX4 activation, fluorescence change (dF/F0), Average",[1]; Conc. (Log[M]) −9,0.005
same,EC50,[1],> 100 µM
same,"Efficacy (maximum measured induction of NanoLuc, normalized to CDCA set as 100%)",[2],B (300%<efficacy <=400%)
same,EC50,[2],< 1000 nM
CC[C@H]1[C@@H](O)[C@@H]2[C@H](CC[C@]3(C)[C@@H]([C@H](C)CCC(=O)NS(=O)(=O)CC)CC[C@@H]23)[C@@]2(C)CCCC[C@@H]12 [4-2],"MRGPRX4 activation, fluorescence change (dF/F0), Average",[1]; Conc. (Log[M]) −4,0.113
same,"MRGPRX4 activation, fluorescence change (dF/F0), Average",[1]; Conc. (Log[M]) −4.5,−0.013
same,"MRGPRX4 activation, fluorescence change (dF/F0), Average",[1]; Conc. (Log[M]) −5,−0.006
same,"MRGPRX4 activation, fluorescence change (dF/F0), Average",[1]; Conc. (Log[M]) −5.5,0.015
same,"MRGPRX4 activation, fluorescence change (dF/F0), Average",[1]; Conc. (Log[M]) −6,−0.006
same,"MRGPRX4 activation, fluorescence change (dF/F0), Average",[1]; Conc. (Log[M]) −7,0.009
same,"MRGPRX4 activation, fluorescence change (dF/F0), Average",[1]; Conc. (Log[M]) −8,0.009
same,"MRGPRX4 activation, fluorescence change (dF/F0), Average",[1]; Conc. (Log[M]) −9,0.002
same,EC50,[1],> 100 µM
same,"Efficacy (maximum measured induction of NanoLuc, normalized to CDCA set as 100%)",[2],B (300%<efficacy <=400%)
same,EC50,[2],< 1000 nM
CC[C@H]1[C@@H](O)[C@@H]2[C@H](CC[C@]3(C)[C@@H]([C@H](C)CC(=O)NS(=O)(=O)C(C)(C)C)CC[C@@H]23)[C@@]2(C)CCCC[C@@H]12 [4-3],EC50,[1],> 100 µM
same,"Efficacy (maximum measured induction of NanoLuc, normalized to CDCA set as 100%)",[2],B (300%<efficacy <=400%)
same,EC50,[2],1000 to 10000 nM
CC[C@H]1[C@@H](O)[C@@H]2[C@H](CC[C@]3(C)[C@@H]([C@H](C)CCNC(=O)NS(=O)(=O)c4ccc(C(C)(C)C)cc4)CC[C@@H]23)[C@@]2(C)CCCC[C@@H]12 [5-1],EC50,[1],> 100 µM
same,"Efficacy (maximum measured induction of NanoLuc, normalized to CDCA set as 100%)",[2],B (300%<efficacy <=400%)
same,EC50,[2],< 1000 nM
CC[C@H]1[C@@H](O)[C@@H]2[C@H](CC[C@]3(C)[C@@H]([C@H](C)CCNC(=O)NS(=O)(=O)c4ccc(C(C)(C)CO)cc4)CC[C@@H]23)[C@@]2(C)CCCC[C@@H]12 [5-2],"MRGPRX4 activation, fluorescence change (dF/F0), Average",[1]; Conc. (Log[M]) −4,0.087
same,"MRGPRX4 activation, fluorescence change (dF/F0), Average",[1]; Conc. (Log[M]) −4.5,0.030
same,"MRGPRX4 activation, fluorescence change (dF/F0), Average",[1]; Conc. (Log[M]) −5,0.023
same,"MRGPRX4 activation, fluorescence change (dF/F0), Average",[1]; Conc. (Log[M]) −5.5,0.027
same,"MRGPRX4 activation, fluorescence change (dF/F0), Average",[1]; Conc. (Log[M]) −6,0.023
same,"MRGPRX4 activation, fluorescence change (dF/F0), Average",[1]; Conc. (Log[M]) −7,0.020
same,EC50,[1],> 100 µM
same,"Efficacy (maximum measured induction of NanoLuc, normalized to CDCA set as 100%)",[2],A (efficacy >400%)
same,EC50,[2],< 1000 nM
